Measurements reported in patent US12227520B2 (priority 2019, dated 2025).
Where two headings read alike, the source gives them in different places.

Legend:
HIV-1 (IIIB) = assay: Antiviral assay in MT-4 cells (HIV MT-4 antiviral assay); assay type: cell-based; settings: Human immunodeficiency virus 1, IIIB, MT4, 120 h, HIV-1 (IIIB) in MT-4 cells, 5 days incubation; read-out: EC50
Procedure, shortened: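 MT-4 cells infected with HIV-1 IIIB (1:250 diluted stock) and exposed to 1:3 serially diluted compound in RPMI with 10% FBS. Viability read by CellTiter-Glo luminescence after 5 days at 37° C; mock-infected cells and 5 μM AZT as controls.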

pLai RLuc reporter virus = assay: microbe, parasite or virus in culture; assay type: cell-based, HIV; settings: Human immunodeficiency virus 1, 72 h
Procedure, shortened: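 MT-4 cells pre-infected 2 h at 37 °C with pLai RLuc virus, then exposed to 1:3 serial dilutions of compound in RPMI/10% FBS with or without 50% human serum for 72 h at 37 °C. Renilla luminescence read-out; serum shift = EC50(HS/CCM)/EC50(CCM).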

[1] = Cytotoxicity assay in MT-4 cells; assay type: cell-based, human; settings: human, uninfected MT-4 cells, 5 days incubation; read-out: CC50
Procedure, shortened: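 Infected MT-4 cells (HIV-1 IIIB, fresh 1:250 dilution of concentrated stock) or mock-infected cells exposed to compounds for 5 days at 37 °C. Viability by CellTiter-Glo luminescence; 5 μM AZT positive control, no-drug negative control. Uninfected cells used for cytotoxicity, with 10 μM puromycin as base-level cytotoxicity control.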

[2] = read-out: Antiviral Serum Shift RLuc 50% HS, HS/CCM (RPMI media, 10% FBS, 50% HS, 1% P/S), 72-h incubation
[3] = read-out: Antiviral Serum Shift RLuc CCM, CCM (RPMI media, 10% FBS, 1% P/S), 72-h incubation

SMILES	EC50 (HIV-1 (IIIB))	EC50 (pLai RLuc reporter virus; [2])	EC50 (pLai RLuc reporter virus; [3])	CC50 at 5 days [1]
O=C(NCc1c(F)cc(F)cc1F)c1cn2c(c(O)c1=O)C(=O)N1CCC[C@H](Cl)[C@H]2C1 (single isomer, unassigned) [Example 72-1]	1.57 nM	5.36 nM	0.281 nM	9990 nM
CC[C@]1(O)CCCN2C[C@H]1n1cc(C(=O)NCc3ccc(F)cc3F)c(=O)c(O)c1C2=O [Example 77, (6S,7R)—N-(2,4-difluorobenzyl)-6-ethyl-6,12-dihydroxy-1,11-dioxo-1,4,5,6,7,11-hexahydro-3H-2,7-methanopyrido[1,2-a][1,4]diazonine-10-carboxamide]	2.17 nM	2.13 nM	0.762 nM	15100 nM
O=C(NCc1c(F)cc(F)cc1F)c1cn2c(c(O)c1=O)C(=O)N1CCc3ccc(Br)cc3[C@H]2C1 (single isomer, unassigned) [Example 122-1]	2.57 nM	4.78 nM	0.534 nM	4740 nM
O=C(NCc1c(F)cc(F)cc1F)c1cn2c(c(O)c1=O)C(=O)N1CCc3ccccc3[C@H]2C1 (single isomer, unassigned) [Example 63-1]	1.7 nM	2.16 nM	0.461 nM	13800 nM
C[C@H]1CC[C@H](C)N2C[C@H]1n1cc(C(=O)NCc3c(F)cc(F)cc3F)c(=O)c(O)c1C2=O [Example 186, (3S,6S,7S)-12-hydroxy-3,6-dimethyl-1,11-dioxo-N-(2,4,6-trifluorobenzyl)-1,4,5,6,7,11-hexahydro-3H-2,7-methanopyrido[1,2-a][1,4]diazonine-10-carboxamide]	0.612 nM	60.2 nM	0.306 nM	11400 nM
C[C@H]1CC[C@H]2CN(C(=O)c3c(O)c(=O)c(C(=O)NCc4c(F)cc(F)cc4F)cn32)[C@H]1C [Example 108-2, (3S,4S,7S)-12-hydroxy-3,4-dimethyl-1,11-dioxo-N-(2,4,6-trifluorobenzyl)-1,4,5,6,7,11-hexahydro-3H-2,7-methanopyrido[1,2-a][1,4]diazonine-10-carboxamide]	0.917 nM	1.55 nM	0.335 nM	11800 nM
C[C@]1(F)CCCN2C[C@@H]1n1cc(C(=O)NCc3ccc(F)cc3F)c(=O)c(O)c1C2=O (single isomer, unassigned) [Example 60-2]	1.97 nM	102 nM	0.328 nM	14000 nM
O=C(NCc1ccc(F)cc1F)c1cn2c(c(O)c1=O)C(=O)N1CC=CC[C@@H]2C1 [Example 47-1, (7R)—N-(2,4-difluorobenzyl)-12-hydroxy-1,11-dioxo-1,6,7,11-tetrahydro-3H-2,7-methanopyrido[1,2-a][1,4]diazonine-10-carboxamide]	4.93 nM	25.7 nM	0.682 nM	11100 nM
O=C(NCc1ccc(F)cc1F)c1cn2c(c(O)c1=O)C(=O)N1C[C@@H]2CCC(F)(F)C1 [Example 4-2, (7S)-N-(2,4-difluorobenzyl)-4,4-difluoro-12-hydroxy-1,11-dioxo-1,4,5,6,7,11-hexahydro-3H-2,7-methanopyrido[1,2-a][1,4]diazonine-10-carboxamide]	4.8 nM	4.36 nM	1.11 nM	10700 nM
O=C(NCc1ccc(F)c(Cl)c1F)c1cn2c(c(O)c1=O)C(=O)N1CCCC[C@H]2C1 [Example 51, (7S)—N-(3-chloro-2,4-difluorobenzyl)-12-hydroxy-1,11-dioxo-1,4,5,6,7,11-hexahydro-3H-2,7-methanopyrido[1,2-a][1,4]diazonine-10-carboxamide]	1.17 nM	2.14 nM	0.215 nM	4390 nM
O=C(NCc1c(F)cc(F)cc1F)c1cn2c(c(O)c1=O)C(=O)N1CCCC(F)(F)[C@@H]2C1 (single isomer, unassigned) [Example 10-1]	3.2 nM	1140 nM	1.02 nM	37100 nM
C[C@H]1CC[C@H](F)[C@H]2CN1C(=O)c1c(O)c(=O)c(C(=O)NCc3c(F)cc(F)cc3F)cn12 [Example 157, (3S,6S,7R)-6-fluoro-12-hydroxy-3-methyl-1,11-dioxo-N-(2,4,6-trifluorobenzyl)-1,4,5,6,7,11-hexahydro-3H-2,7-methanopyrido[1,2-a][1,4]diazonine-10-carboxamide]	5.36 nM	5.75 nM	1.61 nM	23700 nM
C[C@@H]1CC[C@H](C)N2C[C@H]1n1cc(C(=O)NCc3ccc(F)cc3F)c(=O)c(O)c1C2=O [Example 175, (3S,6R,7S)—N-(2,4-difluorobenzyl)-12-hydroxy-3,6-dimethyl-1,11-dioxo-1,4,5,6,7,11-hexahydro-3H-2,7-methanopyrido[1,2-a][1,4]diazonine-10-carboxamide]	1.29 nM	20.9 nM	0.412 nM	7740 nM
O=C(NCc1c(F)cc(F)cc1F)c1cn2c(c(O)c1=O)C(=O)N1CCCC[C@]2(CF)C1 [Example 163-2, (7R)—N-(2,4,6-trifluorobenzyl)-7-(fluoromethyl)-12-hydroxy-1,11-dioxo-1,4,5,6,7,11-hexahydro-3H-2,7-methanopyrido[1,2-a][1,4]diazonine-10-carboxamide]	2.29 nM	15.3 nM	0.118 nM	13800 nM
O=C(NCc1c(F)cc(F)cc1F)c1cn2c(c(O)c1=O)C(=O)N1C[C@H]2CCC(F)(F)C1 [Example 3-1, (7R)-4,4-difluoro-12-hydroxy-1,11-dioxo-N-(2,4,6-trifluorobenzyl)-1,4,5,6,7,11-hexahydro-3H-2,7-methanopyrido[1,2-a][1,4]diazonine-10-carboxamide]	4.2 nM	71.5 nM	0.85 nM	> 40200 nM
O=C(NCc1c(F)cc(F)cc1F)c1cn2c(c(O)c1=O)C(=O)N1CCC[C@H](O)C[C@H]2C1 [Example 82-1, (6S,8S)-6,13-dihydroxy-1,12-dioxo-N-(2,4,6-trifluorobenzyl)-1,3,4,5,6,7,8,12-octahydro-2,8-methanopyrido[1,2-a][1,4]diazecine-11-carboxamide]	20.5 nM	5.16 nM	4.5 nM	> 50000 nM
C[C@H]1C=CC[C@H]2CN1C(=O)c1c(O)c(=O)c(C(=O)NCc3ccc(F)cc3F)cn12 [Example 149, (3S,7S)—N-(2,4-difluorobenzyl)-12-hydroxy-3-methyl-1,11-dioxo-1,6,7,11-tetrahydro-3H-2,7-methanopyrido[1,2-a][1,4]diazonine-10-carboxamide]	1.59 nM	2.97 nM	0.255 nM	10000 nM
O=C(NCc1ccc(F)c(Cl)c1F)c1cn2c(c(O)c1=O)C(=O)N1CCCC(F)(F)[C@H]2C1 (single isomer, unassigned) [Example 117-1]	1.93 nM	7.17 nM	0.33 nM	13300 nM
C[C@@H]1CC[C@H]2C[C@@]23CN1C(=O)c1c(O)c(=O)c(C(=O)NCc2c(F)cc(F)cc2F)cn13 [Example 150, (1aS,4R,11aS)-7-hydroxy-4-methyl-6,8-dioxo-N-(2,4,6-trifluorobenzyl)-1a,2,3,4,6,8-hexahydro-1H-5,11a-methanocyclopropa[h]pyrido[1,2-a][1,4]diazonine-9-carboxamide]	1.98 nM	4.41 nM	0.171 nM	8490 nM
O=C(NCc1ccc(F)cc1F)c1cn2c(c(O)c1=O)C(=O)N1CCCC[C@]2(CF)C1 [Example 162-2, (7R)—N-(2,4-difluorobenzyl)-7-(fluoromethyl)-12-hydroxy-1,11-dioxo-1,4,5,6,7,11-hexahydro-3H-2,7-methanopyrido[1,2-a][1,4]diazonine-10-carboxamide]	2.58 nM	15.3 nM	0.118 nM	14400 nM
O=C(NCc1ccc(F)c(F)c1F)c1cn2c(c(O)c1=O)C(=O)N1CCCC[C@H]2C1 [Example 161, (7S)-12-hydroxy-1,11-dioxo-N-(2,3,4-trifluorobenzyl)-1,4,5,6,7,11-hexahydro-3H-2,7-methanopyrido[1,2-a][1,4]diazonine-10-carboxamide]	2.1 nM	1.01 nM	0.3 nM	4630 nM
O=C(NCc1ccc(F)cc1F)c1cn2c(c(O)c1=O)C(=O)N1CCCC(F)(F)[C@@H]2C1 [Example 16-1, (7S)-N-(2,4-difluorobenzyl)-6,6-difluoro-12-hydroxy-1,11-dioxo-1,4,5,6,7,11-hexahydro-3H-2,7-methanopyrido[1,2-a][1,4]diazonine-10-carboxamide]	2.1 nM	3.22 nM	0.25 nM	14400 nM
O=C1c2c(O)c(=O)c(-c3nnc(Cc4ccc(F)cc4F)s3)cn2[C@H]2CCCCN1C2 [Example 185, (7S)-10-(5-(2,4-difluorobenzyl)-1,3,4-thiadiazol-2-yl)-12-hydroxy-4,5,6,7-tetrahydro-3H-2,7-methanopyrido[1,2-a][1,4]diazonine-1,11-dione]	3.29 nM	4.88 nM	0.984 nM	3550 nM
